Measured values from patent US10458996B1, “Methods for determining clinical response to TNF-alpha and/or JAK inhibitors in subjects with inflammatory diseases” (Beth Israel Deaconess Medical Center, Inc., priority 2016, dated 2019).

Test system: biopsy samples from patients with IBD
Experiment: Cytokine profiles of patient biopsy cultures in response to treatment with various agents (Example 2)
Type: cell-based, human
Conditions: patient ID 13-562 (FIG. 5F)
Method: From each patient, intestinal mucosal biopsies were minced into several pieces and distributed in 8 wells of a 96-well plate in 250 μl of Dulbecco's Modified Eagle Medium (DMEM) supplemented with 10% FBS and antibiotic-antimycotic (Life Technologies, CA). Half of the cultures were treated with infliximab (REMICADE®; 0.5 mg/ml; Janssen Biotech, Inc, NJ) and the plate was incubated at 37° C. in a humidified chamber of 95% O2/5% CO2 for 18 hours. Culture supernatants were collected, filtered and stored at −80° C. […] Signal detection and analysis was performed by MAGPIX® (Luminex Corporation, TX).
[…] with 0.5 mg/ml infliximab (an anti-TNFα antibody; therapeutic agent), 100 μM tofacitinib (a Janus kinase (JAK) inhibitor) and an experimental drug (at 10 μM concentration) in accordance with the protocol described above. Following treatment, biopsy samples were obtained and analyzed for cytokine profiles using […].
Additional similar experiments were conducted for different patients using the same or different therapeutic agents, and the results are shown in FIG. 5D-5H.

## vedolizumab
  changes in cytokine profile: only one cytokine expression down-regulation and four cytokine expression up-regulation
  ex vivo response of patient: ex vivo non-responder
